The values that follow come from patent publication US20240131028A1, “CHEMOVACCINATION AGAINST PLASMODIUM INFECTION WITH SELECTIVE PLASMEPSIN X INHIBITORS” (Merck Sharp & Dohme LLC, priority 2021, published 2024).

Molecules are shown by their SMILES.

The test system of one assay is ring stage parasites (Pf). Nature of the assay: Parasite lactate dehydrogenase (LDH) growth assay (Parasite Assay, PfLDH Assay). Particulars: Plasmodium falciparum, 72 h, Table 3; 72 hours growth, LDH readout; read-out: EC50. It counts as cell-based, P. falciparum. As to the method: The parasite stock was maintained at 4% haematocrit in RPMI-Hepes media buffered with sodium bicarbonate and supplemented with 5% heat inactivated human serum and 0.5% albumax. […] On the day of assay set up, a blood smear of the parasite culture was Giemsa stained and counted. The parasitemia was adjusted to 0.7% rings and the haematocrit was diluted to 2% in RPMI-Hepes media buffered with sodium bicarbonate and supplemented with 5% heat inactivated human serum and 0.5% albumax. 30 μl of diluted parasites are then added into 10 μl of media+compound in pre-prepared Greiner TC assay plates. Parasite assay plates were placed in gassed humidified boxes in single layer and allowed to incubate at 37° C. for 72 hours. After 72 hours growth, assay plates were sealed with parafilm and frozen flat, in single file at −80° C. overnight. On the following day, assay plates were allowed to thaw at room temperature for 4 hours to which an LDH assay was performed to measure parasite growth.
Turning to `CCC1(CC)CC(=O)N([C@H](CCOC)[C@H]2C[C@@H]2C(=O)N[C@H]2CC(C)(C)Oc3ccccc32)C(=N)N1` [Example 1A], the concentration for a half-maximal effect (EC50) was determined as 1 nM.
Still for that read-out and setting: the result for `CCC1(CC)CC(=O)N([C@H](CCOC)[C@H]2C[C@@H]2C(=O)N[C@@H]2CC(C)(C)Oc3ccccc32)C(=N)N1` [Example 1B] reads 250 nM.
For `CCC1(CC)CC(=O)N(C[C@H]2C[C@@H]2C(=O)N[C@H](C)c2ccccc2)C(=N)N1` [Example 3B], the EC50 is 151 nM.
Same read-out and setting: the result for `CCC1(CC)CC(=O)N(C[C@H]2C[C@@H]2C(=O)N[C@@H]2CCOc3ccccc32)C(=N)N1` [Example 4B] reads 26 nM; that for `CCC1(CC)CC(=O)N(C[C@H]2C[C@@H]2C(=O)N[C@H]2CC(C)(C)Oc3ccccc32)C(=N)N1` [Example 5], 49 nM.
On the same count and under the same terms, the value for `CCC1(CC)CC(=O)N(C[C@H]2C[C@@H]2C(=O)N[C@H]2c3ccccc3C[C@@H]2O)C(=N)N1` [Example 6A] was 188 nM; that for `CCC1(CC)CC(=O)N(C[C@H]2C[C@@H]2C(=O)N[C@H]2CC(C)(C)Oc3ccc(F)cc32)C(=N)N1` [Example 7A] was 135 nM.
Turning to `CCC1(CC)CC(=O)N(C[C@H]2C[C@@H]2C(=O)N[C@@H]2CC(C)(C)Oc3ccc(F)cc32)C(=N)N1` [Example 7B], the EC50 amounted to 29 nM.
The same measure, in the same setting: the value for `CCC1(CC)CC(=O)N(C[C@H]2C[C@@H]2C(=O)N[C@H]2C[C@@H](C(F)(F)F)Oc3ccccc32)C(=N)N1` [Example 8A] was 37 nM; that for `CCC1(CC)CC(=O)N(C[C@H]2C[C@@H]2C(=O)N[C@@H]2C[C@@H](C(F)(F)F)Oc3ccccc32)C(=N)N1` [Example 8B] was 5.3 nM; that for `CCC1(CC)CC(=O)N([C@H](c2cccnc2)[C@H]2C[C@@H]2C(=O)N[C@H]2CCOc3ccccc32)C(=N)N1` [Example 9] was 6.9 nM.
In the case of `CCC1(CC)CC(=O)N([C@H](c2cccnc2)[C@H]2C[C@@H]2C(=O)N[C@@H]2c3ccccc3C[C@@H]2O)C(=N)N1` [Example 10], the EC50 stood at 27 nM.
Turning to `CCC1(CC)CC(=O)N([C@H](c2cccnc2)[C@H]2C[C@@H]2C(=O)N[C@@H]2c3ccccc3OC(C)(C)[C@H]2O)C(=N)N1` [Example 11A], the 50% effective concentration (EC50) was 4.1 nM.
For the compound `CCC1(CC)CC(=O)N([C@H](c2cccnc2)[C@H]2C[C@@H]2C(=O)N[C@H]2c3ccccc3OC(C)(C)[C@H]2O)C(=N)N1` [Example 11B], the EC50 is 24 nM.
With `CCC1(CC)CC(=O)N([C@H](c2cccnc2)[C@H]2C[C@@H]2C(=O)N[C@H]2C[C@@H](C(F)(F)F)Oc3ccccc32)C(=N)N1` [Example 12], the EC50 came to 0.9 nM.
On the same count and under the same terms, the result for `CCC1(CC)CC(=O)N([C@H](CCOC)[C@H]2C[C@@H]2C(=O)N[C@@H]2c3ccccc3C[C@@H]2O)C(=N)N1` [Example 13] reads 24 nM; that for `CCC1(CC)CC(=O)N([C@H](CCOC)[C@H]2C[C@@H]2C(=O)N[C@H]2C[C@@H](C(F)(F)F)Oc3ccccc32)C(=N)N1` [Example 14], 0.9 nM.
Same read-out and setting: the value for `CCC1(CC)CC(=O)N(C[C@@H]2[C@@H](C(=O)N[C@H]3c4ccccc4OC(C)(C)[C@H]3O)C2(F)F)C(=N)N1` [Example 18A] was 39 nM.
Still for that read-out and setting: the result for `CCC1(CC)CC(=O)N([C@H](CCOC)[C@H]2C[C@@H]2C(=O)N[C@@H]2c3ccccc3OCC2(C)C)C(=N)N1` [Example 19A] reads 28 nM; that for `CCC1(CC)CC(=O)N([C@H](CCOC)[C@H]2C[C@@H]2C(=O)N[C@H]2c3ccccc3OCC2(C)C)C(=N)N1` [Example 19B], 4.2 nM.
Turning to `COCC[C@H]([C@H]1C[C@@H]1C(=O)N[C@H]1CC(C)(C)Oc2ccccc21)N1C(=N)N[C@](C)(C(C)C)CC1=O` [Example 20], the concentration giving a half-maximal response (EC50) came out at 5.3 nM.
For `COCC[C@H]([C@H]1C[C@@H]1C(=O)N[C@H]1C[C@@H](C(F)(F)F)Oc2ccccc21)N1C(=N)N[C@](C)(C(C)C)CC1=O` [Example 21A], the 50% effective concentration (EC50) turned out to be 260 nM.

Still in this assay, the particulars now being: Table 3; 72 hours growth, LDH readout; read-out: EC50.
With `COCC1(C)CC(NC(=O)[C@H]2C[C@@H]2[C@@H](c2cccnc2)N2C(=N)NC(C)(C)CC2=O)c2ccccc2O1` (single isomer, unassigned) [Example 108A], the EC50 came to 70 nM.
`COCC1(C)CC(NC(=O)[C@H]2C[C@@H]2[C@@H](c2cccnc2)N2C(=N)NC(C)(C)CC2=O)c2ccccc2O1` (single isomer, unassigned) [Example 108B]: the half-maximal effective concentration (EC50) turned out to be 3.7 nM.
For `COCC1(C)CC(NC(=O)[C@H]2C[C@@H]2[C@@H](c2cccnc2)N2C(=N)NC(C)(C)CC2=O)c2ccccc2O1` (single isomer, unassigned) [Example 108C], the EC50 stood at 6 nM.
On the same count and under the same terms, the result for `COCC1(C)CC(NC(=O)[C@H]2C[C@@H]2[C@@H](c2cccnc2)N2C(=N)NC(C)(C)CC2=O)c2ccccc2O1` (single isomer, unassigned) [Example 108D] reads 8.5 nM; that for `CC1(C)CC(=O)N([C@H](c2cccnc2)[C@H]2C[C@@H]2C(=O)NC2CC(C)(C)Oc3ccc(C(F)(F)F)cc32)C(=N)N1` (single isomer, unassigned) [Example 109A], 2.3 nM.
With `CC1(C)CC(=O)N([C@H](c2cccnc2)[C@H]2C[C@@H]2C(=O)NC2CC(C)(C)Oc3ccc(C(F)(F)F)cc32)C(=N)N1` (single isomer, unassigned) [Example 109B], the concentration for a half-maximal effect (EC50) is 1 nM.
As to `CC[C@]1(C)CC(=O)N([C@H](CCOC)[C@H]2C[C@@H]2C(=O)NC2CC(C)(C)Oc3ccc(C(F)(F)F)cc32)C(=N)N1` (single isomer, unassigned) [Example 127A], the 50% effective concentration (EC50) came to 1.1 nM.
As to `CC[C@]1(C)CC(=O)N([C@H](CCOC)[C@H]2C[C@@H]2C(=O)NC2CC(C)(C)Oc3ccc(C(F)(F)F)cc32)C(=N)N1` (single isomer, unassigned) [Example 127B], the half-maximal effective concentration (EC50) was 2.6 nM.
The same measure, in the same setting: the result for `CC[C@]1(C)CC(=O)N([C@H](CCOC)[C@H]2C[C@@H]2C(=O)NC2CC(C)(C)Oc3ccc(F)cc32)C(=N)N1` (single isomer, unassigned) [Example 130A] reads 0.9 nM; that for `CC[C@]1(C)CC(=O)N([C@H](CCOC)[C@H]2C[C@@H]2C(=O)NC2CC(C)(C)Oc3ccc(F)cc32)C(=N)N1` (single isomer, unassigned) [Example 130B], 2.4 nM; that for `CCC1C[C@H](NC(=O)[C@H]2C[C@@H]2CN2C(=N)NC(C)(C)CC2=O)c2ccccc2O1` (single isomer, unassigned) [Example 133A], 210 nM.
In the case of `CCC1C[C@H](NC(=O)[C@H]2C[C@@H]2CN2C(=N)NC(C)(C)CC2=O)c2ccccc2O1` (single isomer, unassigned) [Example 133B], the EC50 turned out to be 100 nM.
On to `COCC[C@H]([C@H]1C[C@@H]1C(=O)NC1CC(C)(C)Oc2cc(OC(F)(F)F)ccc21)N1C(=N)NC(C)(C)CC1=O` (single isomer, unassigned) [Example 134A], for which the concentration giving a half-maximal response (EC50) is 71 nM.
Still for that read-out and setting: the result for `COCC[C@H]([C@H]1C[C@@H]1C(=O)NC1CC(C)(C)Oc2cc(OC(F)(F)F)ccc21)N1C(=N)NC(C)(C)CC1=O` (single isomer, unassigned) [Example 134B] reads 25 nM; that for `CCC1(CC)CC(=O)N(C[C@H]2C[C@@H]2C(=O)N[C@H]2c3ccccc3C[C@@H]2O)C(=N)N1` [Example 6B], 269 nM.

Staying with this assay, now noted: Table 4; 72 hours growth, LDH readout; read-out: EC50 (Table 4).
As to `CCC1(CC)CC(=O)N(C(CC(C)OC)[C@H]2C[C@@H]2C(=O)N[C@H]2CC(C)(C)Oc3ccccc32)C(=N)N1` (single isomer, unassigned) [Example 142A], the half-maximal effective concentration (EC50) came to 1.9 nM.
For `CCC1(CC)CC(=O)N(C(CC(C)OC)[C@H]2C[C@@H]2C(=O)N[C@H]2CC(C)(C)Oc3ccccc32)C(=N)N1` (single isomer, unassigned) [Example 142B], the EC50 is 0.7 nM.
The same measure, in the same setting: the result for `CCC1(CC)CC(=O)N(C(CC(C)OC)[C@H]2C[C@@H]2C(=O)N[C@H]2CC(C)(C)Oc3ccccc32)C(=N)N1` (single isomer, unassigned) [Example 142C] reads 205 nM.
Still for that read-out and setting: the result for `CCC1(CC)CC(=O)N(C(CC(C)OC)[C@H]2C[C@@H]2C(=O)N[C@H]2CC(C)(C)Oc3ccccc32)C(=N)N1` (single isomer, unassigned) [Example 142D] reads 115 nM.
On the same count and under the same terms, the value for `CCC1(CC)CC(=O)N(C(CC(C)OC)[C@H]2C[C@@H]2C(=O)N[C@@H]2CC(C)(C)Oc3ccccc32)C(=N)N1` (single isomer, unassigned) [Example 143A] was 4.6 nM; that for `CCC1(CC)CC(=O)N(C(CC(C)OC)[C@H]2C[C@@H]2C(=O)N[C@@H]2CC(C)(C)Oc3ccccc32)C(=N)N1` (single isomer, unassigned) [Example 143B] was 2.4 nM.
As to `CCC1(CC)CC(=O)N(C(CC(C)OC)[C@H]2C[C@@H]2C(=O)N[C@@H]2CC(C)(C)Oc3ccccc32)C(=N)N1` (single isomer, unassigned) [Example 143C], the EC50 stood at 57.9 nM.
Same read-out and setting: the result for `CCC1(CC)CC(=O)N([C@H](CCOC)[C@H]2C[C@@H]2C(=O)NC2CC(C)(C)Oc3cc(Cl)ccc32)C(=N)N1` (single isomer, unassigned) [Example 147A] reads 2.8 nM; that for `CCC1(CC)CC(=O)N([C@H](CCOC)[C@H]2C[C@@H]2C(=O)NC2CC(C)(C)Oc3cc(Cl)ccc32)C(=N)N1` (single isomer, unassigned) [Example 147B], 8.2 nM.
